According to patent EP1617853B1, “ISOLATION OF THE HEPATOPROTECTIVE AGENT ACTEOSIDE FROM COLERBROKEA OPPOSITIFOLIA” (COUNCIL OF SCIENTIFIC AND INDUSTRIAL RESEARCH, priority 2003, dated 2004):

Test system: CCl4 induced hepatic injury
Experiment: Hepatoprotective potential against CCl4 induced hepatic injury (prophylactic)
Type: in vivo, Rodents
Conditions: for ALP % protection / Albumin % protection / Bilirubin % protection / GOT % protection / GPT % protection / GSH % protection / LP % protection / TG % protection: value within parenthesis
Excerpt: The compound has been bioevaluated for hepatoprotective/antihepatotoxic activity by using a comprehensive study design annexed herewith as Annexure-2. The parameters studied during the bioevaluation to establish the bioefficacy and optimum dose were preferred using the kits (Clonital, Italy and Accurex Biomedical Pvt. Ltd Thane). The list of the parameters is given in Annexure-2 appended herewith. The dose response graphs with respect to different parameters in comparison with the standard drug with silymarin and glycyrrhizin are given in Annexure-3 appended herewith.
Hepatoprotective activity (H) was calculated by the following equation : H = [1-(TC-V/VC-V)]x100 [formula]
Where TC, VC, and V are drug + toxin, vehicle + toxin and vehicle treated groups of animals respectively. Table-1: Hepatoprotective potential of Acteoside against CCl4 induced hepatic injury in Rodents Prophylactic).

[1] = 100 mg/kg p.o. + CCl4 1 ml/kg p.o., prophylactic, mean ± SE of six animals
[2] = 100 mg/kg p.o. + CCl4 1 ml/kg p.o., prophylactic, mean ± SE of six animals, unit = µ mole pyruvate/min/L
[3] = 100 mg/kg p.o. + CCl4 1 ml/kg p.o., prophylactic
[4] = 0.625 mg/kg p.o. + CCl4 1 ml/kg p.o., prophylactic, mean ± SE of six animals
[5] = 0.625 mg/kg p.o. + CCl4 1 ml/kg p.o., prophylactic
[6] = 1.25 mg/kg p.o. + CCl4 1 ml/kg p.o., prophylactic, mean ± SE of six animals
[7] = 1.25 mg/kg p.o. + CCl4 1 ml/kg p.o., prophylactic
[8] = 2.5 mg/kg p.o. + CCl4 1 ml/kg p.o., prophylactic, mean ± SE of six animals
[9] = 2.5 mg/kg p.o. + CCl4 1 ml/kg p.o., prophylactic
[10] = 5.0 mg/kg p.o. + CCl4 1 ml/kg p.o., prophylactic, mean ± SE of six animals
[11] = 5.0 mg/kg p.o. + CCl4 1 ml/kg p.o., prophylactic
[12] = Acteoside only (Per-se), 5 mg/kg p.o., no CCl4, mean ± SE of six animals

Question: What does the source list for CC1(C)[C@@H](O[C@H]2O[C@H](C(=O)O)[C@@H](O)[C@H](O)[C@H]2O[C@@H]2O[C@H](C(=O)O)[C@@H](O)[C@H](O)[C@H]2O)CC[C@]2(C)[C@H]3C(=O)C=C4[C@@H]5C[C@@](C)(C(=O)O)CC[C@]5(C)CC[C@@]4(C)[C@]3(C)CC[C@@H]12 [Glycyrrhizin, reference compound]?
Answer: Hepatic parameters GSH (glutathione) [1]: 5.96 ±0.26 µ mole GSH/g liver; Hepatic parameters LP (lipid peroxidation) [1]: 54.37 ± 4.32 n mole MDA/g liver; Serum parameter ALP [1]: 55.63 ± 3.52 µ mole of p-nitrophenol formed /min/L; Serum parameter Albumin [1]: 3.30 ± 0.12 g %; Serum parameter Bilirubin [1]: 0.55 ± 0.04 mg %; Serum parameter TG [1]: 65.31 ± 3.69 mg %; Serum parameter GOT [2]: 494.27 ± 36.28 Units; Serum parameter GPT [2]: 746.87 ± 49.77 Units; ALP % protection [3]: 46.48%; Albumin % protection [3]: 38.57%; Bilirubin % protection [3]: 42.85%; GOT % protection [3]: 56.44%; GPT % protection [3]: 53.87%; GSH % protection [3]: 53.55%; LP % protection [3]: 56.08%; TG % protection [3]: 42.07%

Question: C[C@@H]1O[C@@H](O[C@@H]2[C@@H](O)[C@H](OCCc3ccc(O)c(O)c3)O[C@H](CO)[C@H]2OC(=O)/C=C/c2ccc(O)c(O)c2)[C@H](O)[C@H](O)[C@H]1O [Acteoside, β-(3',4'-dihydroxyphenyl) ethyl -O-α-L-rhamnopyranosyl (1→3)-β-D-(4-O-caffeoyl)-glucopyranoside] was tested. Which “Hepatic parameters GSH (glutathione)” value [4] did it give?
Answer: 4.66±0.28 µ mole GSH/g liver

Question: What about the “Hepatic parameters LP (lipid peroxidation)” value (“Hepatic parameters LP” below) [4] of the same compound?
Answer: 61.08±3.39 n mole MDA/g liver

Question: What about the “Serum parameter ALP” value [4] of the same compound?
Answer: 66.80±3.53 µ mole of p-nitrophenol formed /min/L

Question: What about the “Serum parameter Albumin” value [4] of the same compound?
Answer: 3.06±0.07 g %

Question: And the “Serum parameter Bilirubin” value [4]?
Answer: 0.70±0.03 mg %

Question: What about the “Serum parameter TG” value [4] of the same compound?
Answer: 80.15±3.53 mg %

Question: And the ALP % protection [5]?
Answer: 21.48%

Question: And the Albumin % protection [5]?
Answer: 21.43%

Question: And the Bilirubin % protection [5]?
Answer: 12.24%

Question: What about the GOT % protection [5] of the same compound?
Answer: 36.64%

Question: And the GPT % protection [5]?
Answer: 39.44%

Question: What about the GSH % protection [5] of the same compound?
Answer: 27.86%

Question: What about the LP % protection [5] of the same compound?
Answer: 43.53%

Question: And the TG % protection [5]?
Answer: 17.63%

Question: What about the “Hepatic parameters GSH (glutathione)” value [6] of the same compound?
Answer: 5.93±0.32 µ mole GSH/g liver

Question: What about the “Hepatic parameters LP” value [6] of the same compound?
Answer: 52.61±2.25 n mole MDA/g liver

Question: And the “Serum parameter ALP” value [6]?
Answer: 59.10±3.09 µ mole of p-nitrophenol formed /min/L

Question: And the “Serum parameter Albumin” value [6]?
Answer: 3.25±0.14 g %

Question: What about the “Serum parameter Bilirubin” value [6] of the same compound?
Answer: 0.59±0.03 mg %

Question: And the “Serum parameter TG” value [6]?
Answer: 74.38±3.78 mg %

Question: What about the ALP % protection [7] of the same compound?
Answer: 38.72%

Question: What about the Albumin % protection [7] of the same compound?
Answer: 35.00%

Question: What about the Bilirubin % protection [7] of the same compound?
Answer: 34.69%

Question: And the GOT % protection [7]?
Answer: 55.43%

Question: And the GPT % protection [7]?
Answer: 51.01%

Question: And the GSH % protection [7]?
Answer: 52.96%

Question: And the LP % protection [7]?
Answer: 59.38%

Question: And the TG % protection [7]?
Answer: 27.13%

Question: And the “Hepatic parameters GSH (glutathione)” value [8]?
Answer: 6.72±0.28 µ mole GSH/g liver

Question: What about the “Hepatic parameters LP” value [8] of the same compound?
Answer: 45.46±2.79 n mole MDA/g liver

Question: And the “Serum parameter ALP” value [8]?
Answer: 51.20±1.42 µ mole of p-nitrophenol formed /min/L

Question: What about the “Serum parameter Albumin” value [8] of the same compound?
Answer: 3.55±0.22 g %

Question: And the “Serum parameter Bilirubin” value [8]?
Answer: 0.50±0.03 mg %

Question: What about the “Serum parameter TG” value [8] of the same compound?
Answer: 59.85±1.88 mg %

Question: What about the ALP % protection [9] of the same compound?
Answer: 56.40%

Question: And the Albumin % protection [9]?
Answer: 56.43%

Question: And the Bilirubin % protection [9]?
Answer: 53.06%

Question: And the GOT % protection [9]?
Answer: 58.92%

Question: What about the GPT % protection [9] of the same compound?
Answer: 59.79%

Question: And the GSH % protection [9]?
Answer: 68.57%

Question: What about the LP % protection [9] of the same compound?
Answer: 72.76%

Question: What about the TG % protection [9] of the same compound?
Answer: 51.06%

Question: What about the “Hepatic parameters GSH (glutathione)” value [10] of the same compound?
Answer: 7.02±0.46 µ mole GSH/g liver

Question: And the “Hepatic parameters LP” value [10]?
Answer: 44.22±1.66 n mole MDA/g liver

Question: And the “Serum parameter ALP” value [10]?
Answer: 46.37±1.89 µ mole of p-nitrophenol formed /min/L

Question: What about the “Serum parameter Albumin” value [10] of the same compound?
Answer: 3.91±0.12 g %

Question: And the “Serum parameter Bilirubin” value [10]?
Answer: 0.42±0.02 mg %

Question: What about the “Serum parameter TG” value [10] of the same compound?
Answer: 49.31±1.47 mg %

Question: And the ALP % protection [11]?
Answer: 67.21%

Question: What about the Albumin % protection [11] of the same compound?
Answer: 32.14%

Question: What about the Bilirubin % protection [11] of the same compound?
Answer: 69.38%

Question: And the GOT % protection [11]?
Answer: 70.49%

Question: What about the GPT % protection [11] of the same compound?
Answer: 66.08%

Question: What about the GSH % protection [11] of the same compound?
Answer: 74.50%

Question: And the LP % protection [11]?
Answer: 75.07%

Question: What about the TG % protection [11] of the same compound?
Answer: 68.42%

Question: And the “Hepatic parameters GSH (glutathione)” value [12]?
Answer: 8.33±0.33 µ mole GSH/g liver

Question: And the “Hepatic parameters LP” value [12]?
Answer: 30.52±1.38 n mole MDA/g liver

Question: What about the “Serum parameter ALP” value [12] of the same compound?
Answer: 31.87±2.15 µ mole of p-nitrophenol formed /min/L

Question: And the “Serum parameter Albumin” value [12]?
Answer: 4.66±0.18 g %

Question: What about the “Serum parameter Bilirubin” value [12] of the same compound?
Answer: 0.27±0.02 mg %

Question: What about the “Serum parameter TG” value [12] of the same compound?
Answer: 31.10±2.39 mg %

Question: What about the “Serum parameter GOT” value (Acteoside only (Per-se), 5 mg/kg p.o., no CCl4, mean ± SE of six animals, unit = µ mole pyruvate/min/L) of the same compound?
Answer: 94.71±5.29 Units

Question: And the overall percent protection (with reference to all the parameters studied, CCl4, dose of 1.25 mg upto 5 mg/kg)?
Answer: 40-80%
